From patent US20230111310A1, “CARBOXYLIC ACID DERIVATIVE-SUBSTITUTED IMINO ARYL COMPOUND, PREPARATION METHOD THEREFOR, HERBICIDAL COMPOSITION AND USE THEREOF” (Qingdao Kingagroot Chemical Compound Co., Ltd., priority 2020, published 2023)

Columns and labels:
Experiment in all cases: Weeding effect in post-emergence stage
Assay type in all cases: in vivo
[1] = system: Abutilon theophrasti; conditions: for Weeding effect in post-emergence stage, Abutilon theophrasti: level of fresh weight growth control rate; for Weeding effect in post-emergence stage, Abutilon theophrasti (level): fresh weight control rate level
Procedure, shortened: (§1)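 Seeds are sown in soil-filled pots under 0.5-2 cm soil and grown 2 weeks in greenhouse. Plants at 2-3 leaves are sprayed with compound (acetone, Tween 80, 1.5 liter/ha methyl oleate EC, water) at 7.5 to 500 g/ha. Damage is rated 3 weeks later, averaging three repeats.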

[2] = system: Eleusine indica; conditions: for Weeding effect in post-emergence stage, Eleusine indica: level of fresh weight growth control rate; for Weeding effect in post-emergence stage, Eleusine indica (level): fresh weight control rate level
Procedure, shortened: as §1

[3] = system: Alopecurus japonicus; conditions: for Weeding effect in post-emergence stage, Alopecurus japonicus: level of fresh weight growth control rate; for Weeding effect in post-emergence stage, Alopecurus japonicus (level): fresh weight control rate level
Procedure, shortened: as §1

[4] = system: Setaria viridis; conditions: for Weeding effect in post-emergence stage, Setaria viridis: level of fresh weight growth control rate; for Weeding effect in post-emergence stage, Setaria viridis (level): fresh weight control rate level
Procedure, shortened: as §1

[5] = system: Digitaria sanguinalis; conditions: for Weeding effect in post-emergence stage, Digitaria sanguinalis: level of fresh weight growth control rate; for Weeding effect in post-emergence stage, Digitaria sanguinalis (level): fresh weight control rate level
Procedure, shortened: as §1

[6] = system: Echinochloa crusgalli; conditions: for Weeding effect in post-emergence stage, Echinochloa crusgalli: level of fresh weight growth control rate; for Weeding effect in post-emergence stage, Echinochloa crusgalli (level): fresh weight control rate level
Procedure, shortened: as §1

Row | SMILES | Weeding effect in post-emergence stage, Abutilon theophrasti ([1]; Dose 15 g/ha) | Weeding effect in post-emergence stage, Eleusine indica ([2]; Dose 15 g/ha) | Weeding effect in post-emergence stage, Alopecurus japonicus ([3]; Dose 15 g/ha) | Weeding effect in post-emergence stage, Setaria viridis ([4]; Dose 15 g/ha) | Weeding effect in post-emergence stage, Digitaria sanguinalis ([5]; Dose 15 g/ha) | Weeding effect in post-emergence stage, Echinochloa crusgalli ([6]; Dose 15 g/ha) | other results
1 | CC(C)=NOCCOC(=O)C(C)O/N=C/c1cc(-n2c(=O)cc(C(F)(F)F)n(C)c2=O)c(F)cc1Cl (stereo not drawn) [Compound 259] | – | – | – | – | – | – | Weeding effect in post-emergence stage, Abutilon theophrasti ([1]; Dose 30 g/ha): 5 (Level 5: growth control rate is above 85%); Weeding effect in post-emergence stage, Eleusine indica ([2]; Dose 30 g/ha): 5 (Level 5: growth control rate is above 85%); Weeding effect in post-emergence stage, Alopecurus japonicus ([3]; Dose 30 g/ha): 5 (Level 5: growth control rate is above 85%); Weeding effect in post-emergence stage, Setaria viridis ([4]; Dose 30 g/ha): 5 (Level 5: growth control rate is above 85%); Weeding effect in post-emergence stage, Digitaria sanguinalis ([5]; Dose 30 g/ha): 5 (Level 5: growth control rate is above 85%); Weeding effect in post-emergence stage, Echinochloa crusgalli ([6]; Dose 30 g/ha): 5 (Level 5: growth control rate is above 85%)
2 | COC(=O)[C@@H](C)O/N=C/c1cc(-n2c(=O)cc(C(F)(F)F)n(C)c2=S)c(F)cc1C#N [396(R)] | – | – | – | – | – | – | Weeding effect in post-emergence stage, Abutilon theophrasti (level) ([1]; Dose 60 g/ha): 5 (Level 5: growth control rate is above 85%); Weeding effect in post-emergence stage, Eleusine indica (level) ([2]; Dose 60 g/ha): 5 (Level 5: growth control rate is above 85%); Weeding effect in post-emergence stage, Alopecurus japonicus (level) ([3]; Dose 60 g/ha): 5 (Level 5: growth control rate is above 85%); Weeding effect in post-emergence stage, Setaria viridis (level) ([4]; Dose 60 g/ha): 5 (Level 5: growth control rate is above 85%); Weeding effect in post-emergence stage, Digitaria sanguinalis (level) ([5]; Dose 60 g/ha): 5 (Level 5: growth control rate is above 85%); Weeding effect in post-emergence stage, Echinochloa crusgalli (level) ([6]; Dose 60 g/ha): 5 (Level 5: growth control rate is above 85%)
3 | CC(O/N=C/c1cc(-n2c(=O)cc(C(F)(F)F)n(C)c2=O)c(F)cc1Cl)C(=O)OCC(C)(F)F (racemic) [Compound 220] | 5 (Level 5: growth control rate is above 85%) | 5 (Level 5: growth control rate is above 85%) | 5 (Level 5: growth control rate is above 85%) | 5 (Level 5: growth control rate is above 85%) | 5 (Level 5: growth control rate is above 85%) | 5 (Level 5: growth control rate is above 85%) | –
4 | CCCCCCCCOC(=O)C(C)O/N=C/c1cc(-n2c(=O)cc(C(F)(F)F)n(C)c2=O)c(F)cc1Cl (racemic) [Compound 206] | 5 (Level 5: growth control rate is above 85%) | 5 (Level 5: growth control rate is above 85%) | 5 (Level 5: growth control rate is above 85%) | 5 (Level 5: growth control rate is above 85%) | 5 (Level 5: growth control rate is above 85%) | 5 (Level 5: growth control rate is above 85%) | –
5 | C#CCOC(=O)C(C)O/N=C/c1cc(-n2c(=O)cc(C(F)(F)F)n(C)c2=O)c(F)cc1Cl (racemic) [Compound 212] | 5 (Level 5: growth control rate is above 85%) | 5 (Level 5: growth control rate is above 85%) | 5 (Level 5: growth control rate is above 85%) | 5 (Level 5: growth control rate is above 85%) | 5 (Level 5: growth control rate is above 85%) | 5 (Level 5: growth control rate is above 85%) | –
6 | CC(O/N=C/c1cc(-n2c(=O)cc(C(F)(F)F)n(C)c2=O)c(F)cc1Cl)C(=O)OCC1(C#N)CC1 (stereo not drawn) [Compound 447] | – | – | – | – | – | – | Weeding effect in post-emergence stage, Abutilon theophrasti (level) ([1]; Dose 15 g/ha): 5 (Level 5: growth control rate is above 85%); Weeding effect in post-emergence stage, Eleusine indica (level) ([2]; Dose 15 g/ha): 5 (Level 5: growth control rate is above 85%); Weeding effect in post-emergence stage, Alopecurus japonicus (level) ([3]; Dose 15 g/ha): 5 (Level 5: growth control rate is above 85%); Weeding effect in post-emergence stage, Setaria viridis (level) ([4]; Dose 15 g/ha): 5 (Level 5: growth control rate is above 85%); Weeding effect in post-emergence stage, Digitaria sanguinalis (level) ([5]; Dose 15 g/ha): 5 (Level 5: growth control rate is above 85%); Weeding effect in post-emergence stage, Echinochloa crusgalli (level) ([6]; Dose 15 g/ha): 5 (Level 5: growth control rate is above 85%)
7 | CC(O/N=C/c1cc(-n2c(=O)cc(C(F)(F)F)n(C)c2=O)c(F)cc1Cl)C(=O)OCc1cccnc1 (stereo not drawn) [Compound 302] | 5 (Level 5: growth control rate is above 85%) | 5 (Level 5: growth control rate is above 85%) | 5 (Level 5: growth control rate is above 85%) | 5 (Level 5: growth control rate is above 85%) | 5 (Level 5: growth control rate is above 85%) | 5 (Level 5: growth control rate is above 85%) | –
8 | CC(C)COC(=O)C(C)O/N=C/c1cc(-n2c(=O)cc(C(F)(F)F)n(C)c2=O)c(F)cc1Cl (racemic) [Compound 201] | 5 (Level 5: growth control rate is above 85%) | 5 (Level 5: growth control rate is above 85%) | 5 (Level 5: growth control rate is above 85%) | 5 (Level 5: growth control rate is above 85%) | 5 (Level 5: growth control rate is above 85%) | 5 (Level 5: growth control rate is above 85%) | –
9 | CC(O/N=C/c1cc(-n2c(=O)cc(C(F)(F)F)n(C)c2=O)c(F)cc1Cl)C(=O)OCC1OCCO1 (stereo not drawn) [Compound 266] | – | – | – | – | – | – | Weeding effect in post-emergence stage, Abutilon theophrasti ([1]; Dose 30 g/ha): 5 (Level 5: growth control rate is above 85%); Weeding effect in post-emergence stage, Eleusine indica ([2]; Dose 30 g/ha): 5 (Level 5: growth control rate is above 85%); Weeding effect in post-emergence stage, Alopecurus japonicus ([3]; Dose 30 g/ha): 5 (Level 5: growth control rate is above 85%); Weeding effect in post-emergence stage, Setaria viridis ([4]; Dose 30 g/ha): 5 (Level 5: growth control rate is above 85%); Weeding effect in post-emergence stage, Digitaria sanguinalis ([5]; Dose 30 g/ha): 5 (Level 5: growth control rate is above 85%); Weeding effect in post-emergence stage, Echinochloa crusgalli ([6]; Dose 30 g/ha): 5 (Level 5: growth control rate is above 85%)
10 | C=CCCOC(=O)[C@@H](C)O/N=C/c1cc(-n2c(=O)cc(C(F)(F)F)n(C)c2=O)c(F)cc1Cl [209(R)] | 5 (Level 5: growth control rate is above 85%) | 5 (Level 5: growth control rate is above 85%) | 5 (Level 5: growth control rate is above 85%) | 5 (Level 5: growth control rate is above 85%) | 5 (Level 5: growth control rate is above 85%) | 5 (Level 5: growth control rate is above 85%) | –
11 | COC(=O)C(O/N=C/c1cc(-n2c(=O)cc(C(F)(F)F)n(C)c2=O)c(F)cc1Cl)C1CCC1 (stereo not drawn) [Compound 488] | – | – | – | – | – | – | Weeding effect in post-emergence stage, Abutilon theophrasti (level) ([1]; Dose 15 g/ha): 5 (Level 5: growth control rate is above 85%); Weeding effect in post-emergence stage, Eleusine indica (level) ([2]; Dose 15 g/ha): 5 (Level 5: growth control rate is above 85%); Weeding effect in post-emergence stage, Alopecurus japonicus (level) ([3]; Dose 15 g/ha): 5 (Level 5: growth control rate is above 85%); Weeding effect in post-emergence stage, Setaria viridis (level) ([4]; Dose 15 g/ha): 5 (Level 5: growth control rate is above 85%); Weeding effect in post-emergence stage, Digitaria sanguinalis (level) ([5]; Dose 15 g/ha): 5 (Level 5: growth control rate is above 85%); Weeding effect in post-emergence stage, Echinochloa crusgalli (level) ([6]; Dose 15 g/ha): 5 (Level 5: growth control rate is above 85%)
12 | CC(=O)COC(=O)[C@@H](C)O/N=C/c1cc(-n2c(=O)cc(C(F)(F)F)n(C)c2=O)c(F)cc1Cl [238(R)] | 5 (Level 5: growth control rate is above 85%) | 5 (Level 5: growth control rate is above 85%) | 5 (Level 5: growth control rate is above 85%) | 5 (Level 5: growth control rate is above 85%) | 5 (Level 5: growth control rate is above 85%) | 5 (Level 5: growth control rate is above 85%) | –
13 | COC(=O)[C@@H](C)S/N=C/c1cc(-n2c(=O)cc(C(F)(F)F)n(C)c2=O)c(F)cc1Cl [730(R)] | – | – | – | – | – | – | Weeding effect in post-emergence stage, Abutilon theophrasti (level) ([1]; Dose 15 g/ha): 5 (Level 5: growth control rate is above 85%); Weeding effect in post-emergence stage, Eleusine indica (level) ([2]; Dose 15 g/ha): 5 (Level 5: growth control rate is above 85%); Weeding effect in post-emergence stage, Alopecurus japonicus (level) ([3]; Dose 15 g/ha): 5 (Level 5: growth control rate is above 85%); Weeding effect in post-emergence stage, Setaria viridis (level) ([4]; Dose 15 g/ha): 5 (Level 5: growth control rate is above 85%); Weeding effect in post-emergence stage, Digitaria sanguinalis (level) ([5]; Dose 15 g/ha): 5 (Level 5: growth control rate is above 85%); Weeding effect in post-emergence stage, Echinochloa crusgalli (level) ([6]; Dose 15 g/ha): 5 (Level 5: growth control rate is above 85%)
14 | COC(=O)[C@@H](C)O/N=C/c1cc(-n2c(=O)cc(C(F)(F)F)n(C)c2=S)c(F)cc1C(F)(F)F [395(R)] | – | – | – | – | – | – | Weeding effect in post-emergence stage, Abutilon theophrasti (level) ([1]; Dose 60 g/ha): 5 (Level 5: growth control rate is above 85%); Weeding effect in post-emergence stage, Eleusine indica (level) ([2]; Dose 60 g/ha): 5 (Level 5: growth control rate is above 85%); Weeding effect in post-emergence stage, Alopecurus japonicus (level) ([3]; Dose 60 g/ha): 5 (Level 5: growth control rate is above 85%); Weeding effect in post-emergence stage, Setaria viridis (level) ([4]; Dose 60 g/ha): 5 (Level 5: growth control rate is above 85%); Weeding effect in post-emergence stage, Digitaria sanguinalis (level) ([5]; Dose 60 g/ha): 5 (Level 5: growth control rate is above 85%); Weeding effect in post-emergence stage, Echinochloa crusgalli (level) ([6]; Dose 60 g/ha): 5 (Level 5: growth control rate is above 85%)
15 | CC(O/N=C/c1cc(-n2c(=O)cc(C(F)(F)F)n(C)c2=O)c(F)cc1Cl)C(=O)OCC1CCCO1 (stereo not drawn) [Compound 264] | 5 (Level 5: growth control rate is above 85%) | 5 (Level 5: growth control rate is above 85%) | 5 (Level 5: growth control rate is above 85%) | 5 (Level 5: growth control rate is above 85%) | 5 (Level 5: growth control rate is above 85%) | 5 (Level 5: growth control rate is above 85%) | –
